According to ChEMBL document CHEMBL1909294, “Translating clinical findings into knowledge in drug safety evaluation--drug induced liver injury prediction system (DILIps)” (PLoS Comput Biol, 2011):

Key:
Hepatotoxicity [1] = tested on: Hepatotoxicity;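 as to HepSE bilirubinemia: bilirubinemia hepatic side effect score drawn from the DILIps training data, a prediction system for drug-induced liver injury; call rule not given here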;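 as to HepSE cholecystitis: Cholecystitis-related hepatic side effect score drawn from the DILIps (drug-induced liver injury prediction) training data set; call rule not given here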;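 as to HepSE elevated liver function tests: hepatic side effect score for raised liver function tests, as recorded in the DILIps training set used for predicting drug-induced liver injury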;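 as to HepSE hepatomegaly: hepatic side effect score for hepatomegaly, taken from the training set of the DILIps drug-induced liver injury prediction system; call rule not given here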;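 as to HepSE liver fatty: hepatic side effect score for fatty liver, taken from the DILIps training set for predicting drug-induced liver injury; call rule not given here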;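 as to HepSE liver function tests abnormal: hepatic side effect score taken from the DILIps (drug-induced liver injury prediction system) training data, here covering abnormal liver function test findings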
Hepatotoxicity [2] = tested on: Hepatotoxicity; remark: listed apart in the source;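 as to HepSE bilirubinemia: bilirubinemia hepatic side effect score drawn from the DILIps training data, a prediction system for drug-induced liver injury; call rule not given here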;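 as to HepSE cholecystitis: Cholecystitis-related hepatic side effect score drawn from the DILIps (drug-induced liver injury prediction) training data set; call rule not given here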;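 as to HepSE elevated liver function tests: hepatic side effect score for raised liver function tests, as recorded in the DILIps training set used for predicting drug-induced liver injury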;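 as to HepSE hepatomegaly: hepatic side effect score for hepatomegaly, taken from the training set of the DILIps drug-induced liver injury prediction system; call rule not given here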;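 as to HepSE liver fatty: hepatic side effect score for fatty liver, taken from the DILIps training set for predicting drug-induced liver injury; call rule not given here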;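 as to HepSE liver function tests abnormal: hepatic side effect score taken from the DILIps (drug-induced liver injury prediction system) training data, here covering abnormal liver function test findings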
Hepatotoxicity [3] = tested on: Hepatotoxicity; remark: listed apart in the source;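 as to HepSE bilirubinemia: bilirubinemia hepatic side effect score drawn from the DILIps training data, a prediction system for drug-induced liver injury; call rule not given here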;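 as to HepSE cholecystitis: Cholecystitis-related hepatic side effect score drawn from the DILIps (drug-induced liver injury prediction) training data set; call rule not given here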;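 as to HepSE elevated liver function tests: hepatic side effect score for raised liver function tests, as recorded in the DILIps training set used for predicting drug-induced liver injury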;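 as to HepSE liver fatty: hepatic side effect score for fatty liver, taken from the DILIps training set for predicting drug-induced liver injury; call rule not given here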;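 as to HepSE liver function tests abnormal: hepatic side effect score taken from the DILIps (drug-induced liver injury prediction system) training data, here covering abnormal liver function test findings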
Hepatotoxicity [4] = tested on: Hepatotoxicity; remark: listed apart in the source;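 as to HepSE bilirubinemia: bilirubinemia hepatic side effect score drawn from the DILIps training data, a prediction system for drug-induced liver injury; call rule not given here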;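 as to HepSE cholecystitis: Cholecystitis-related hepatic side effect score drawn from the DILIps (drug-induced liver injury prediction) training data set; call rule not given here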;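 as to HepSE elevated liver function tests: hepatic side effect score for raised liver function tests, as recorded in the DILIps training set used for predicting drug-induced liver injury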;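 as to HepSE liver fatty: hepatic side effect score for fatty liver, taken from the DILIps training set for predicting drug-induced liver injury; call rule not given here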;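 as to HepSE liver function tests abnormal: hepatic side effect score taken from the DILIps (drug-induced liver injury prediction system) training data, here covering abnormal liver function test findings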
Hepatotoxicity [5] = tested on: Hepatotoxicity; remark: listed apart in the source
Hepatotoxicity [6] = tested on: Hepatotoxicity; remark: listed apart in the source
Hepatotoxicity [7] = tested on: Hepatotoxicity; remark: listed apart in the source
Hepatotoxicity [8] = tested on: Hepatotoxicity; remark: listed apart in the source
Hepatotoxicity [9] = tested on: Hepatotoxicity; remark: listed apart in the source
Hepatotoxicity [10] = tested on: Hepatotoxicity; remark: listed apart in the source
Hepatotoxicity [11] = tested on: Hepatotoxicity; remark: listed apart in the source
Hepatotoxicity [12] = tested on: Hepatotoxicity; remark: listed apart in the source
Hepatotoxicity [13] = tested on: Hepatotoxicity; remark: listed apart in the source
Hepatotoxicity [14] = tested on: Hepatotoxicity; remark: listed apart in the source

## Nc1nc(=O)[nH]cc1F [FLUCYTOSINE]
Hepatotoxicity [1]
  HepSE_liver fatty: 0
Hepatotoxicity [2]
  HepSE_bilirubinemia: 0
Hepatotoxicity [3]
  HepSE_hepatic necrosis: 0
Hepatotoxicity [4]
  HepSE_liver function tests abnormal: 0
Hepatotoxicity [5]
  HepSE_cholelithiasis: 0
Hepatotoxicity [6]
  HepSE_cholecystitis: 0
Hepatotoxicity [7]
  HepSE_hepatitis: 0
Hepatotoxicity [8]
  HepSE_elevated liver function tests: 0
Hepatotoxicity [9]
  HepSE_hepatomegaly: 0
Hepatotoxicity [10]
  HepSE_liver disease: 0
Hepatotoxicity [11]
  HepSE_Combined Scores: 1
Hepatotoxicity [12]
  HepSE_hepatic failure: 0
Hepatotoxicity [13]
  HepSE_cirrhosis: 0
Hepatotoxicity [14]
  HepSE_jaundice: 1

## O=C(O)CCCCCCCC(=O)O [AZELAIC ACID]
Hepatotoxicity [1]
  HepSE_liver fatty: 0
Hepatotoxicity [2]
  HepSE_bilirubinemia: 0
Hepatotoxicity [3]
  HepSE_hepatic necrosis: 0
Hepatotoxicity [4]
  HepSE_liver function tests abnormal: 0
Hepatotoxicity [5]
  HepSE_cholelithiasis: 0
Hepatotoxicity [6]
  HepSE_cholecystitis: 0
Hepatotoxicity [7]
  HepSE_hepatitis: 0
Hepatotoxicity [8]
  HepSE_elevated liver function tests: 0
Hepatotoxicity [9]
  HepSE_hepatomegaly: 0
Hepatotoxicity [10]
  HepSE_liver disease: 0
Hepatotoxicity [11]
  HepSE_Combined Scores: 0
Hepatotoxicity [12]
  HepSE_hepatic failure: 0
Hepatotoxicity [13]
  HepSE_cirrhosis: 0
Hepatotoxicity [14]
  HepSE_jaundice: 0

## Clc1ccc(CSC(Cn2ccnc2)c2ccc(Cl)cc2Cl)cc1 (configuration not stated) [SULCONAZOLE]
Hepatotoxicity [1]
  HepSE_liver fatty: 0
Hepatotoxicity [2]
  HepSE_bilirubinemia: 0
Hepatotoxicity [3]
  HepSE_hepatic necrosis: 0
Hepatotoxicity [4]; Liver
  HepSE_liver function tests abnormal: 0
Hepatotoxicity [5]
  HepSE_cholelithiasis: 0
Hepatotoxicity [6]
  HepSE_cholecystitis: 0
Hepatotoxicity [7]
  HepSE_hepatitis: 0
Hepatotoxicity [8]; Liver
  HepSE_elevated liver function tests: 0
Hepatotoxicity [9]
  HepSE_hepatomegaly: 0
Hepatotoxicity [10]
  HepSE_liver disease: 0
Hepatotoxicity [11]
  HepSE_Combined Scores: 0
Hepatotoxicity [12]
  HepSE_hepatic failure: 0
Hepatotoxicity [13]
  HepSE_cirrhosis: 0
Hepatotoxicity [14]
  HepSE_jaundice: 0

## CCC1=C[C@@H]2CN(C1)Cc1c([nH]c3ccccc13)[C@@](C(=O)OC)(c1cc3c(cc1OC)N(C)[C@H]1[C@@](O)(C(=O)OC)[C@H](OC(C)=O)[C@]4(CC)C=CCN5CC[C@]31[C@@H]54)C2 [VINORELBINE]
Hepatotoxicity [1]
  HepSE_liver fatty: 0
Hepatotoxicity [2]
  HepSE_bilirubinemia: 0
Hepatotoxicity [3]
  HepSE_hepatic necrosis: 0
Hepatotoxicity [4]
  HepSE_liver function tests abnormal: 0
Hepatotoxicity [5]
  HepSE_cholelithiasis: 0
Hepatotoxicity [6]
  HepSE_cholecystitis: 0
Hepatotoxicity [7]
  HepSE_hepatitis: 0
Hepatotoxicity [8]
  HepSE_elevated liver function tests: 0
Hepatotoxicity [9]
  HepSE_hepatomegaly: 0
Hepatotoxicity [10]
  HepSE_liver disease: 0
Hepatotoxicity [11]
  HepSE_Combined Scores: 0
Hepatotoxicity [12]
  HepSE_hepatic failure: 0
Hepatotoxicity [13]
  HepSE_cirrhosis: 0
Hepatotoxicity [14]
  HepSE_jaundice: 0

## C[C@@H]1[C@H](O)[C@@H](C)/C=C/C=C/C=C/C=C/C=C/C=C/C=C/[C@H](O[C@@H]2O[C@H](C)[C@@H](O)[C@H](N)[C@@H]2O)C[C@@H]2O[C@](O)(C[C@@H](O)C[C@@H](O)[C@H](O)CC[C@@H](O)C[C@@H](O)CC(=O)O[C@H]1C)C[C@H](O)[C@H]2C(=O)O [AMPHOTERICIN B]
Hepatotoxicity [1]
  HepSE_liver fatty: 0
Hepatotoxicity [2]
  HepSE_bilirubinemia: 1
Hepatotoxicity [3]
  HepSE_hepatic necrosis: 0
Hepatotoxicity [4]
  HepSE_liver function tests abnormal: 1
Hepatotoxicity [5]
  HepSE_cholelithiasis: 0
Hepatotoxicity [6]
  HepSE_cholecystitis: 0
Hepatotoxicity [7]
  HepSE_hepatitis: 1
Hepatotoxicity [8]
  HepSE_elevated liver function tests: 0
Hepatotoxicity [9]
  HepSE_hepatomegaly: 1
Hepatotoxicity [10]
  HepSE_liver disease: 1
Hepatotoxicity [11]
  HepSE_Combined Scores: 7
Hepatotoxicity [12]
  HepSE_hepatic failure: 1
Hepatotoxicity [13]
  HepSE_cirrhosis: 0
Hepatotoxicity [14]
  HepSE_jaundice: 1

## NC1=NC(=O)C(c2ccccc2)O1 (configuration not stated) [PEMOLINE]
Hepatotoxicity [1]
  HepSE_liver fatty: 0
Hepatotoxicity [2]
  HepSE_bilirubinemia: 0
Hepatotoxicity [3]
  HepSE_hepatic necrosis: 0
Hepatotoxicity [4]
  HepSE_liver function tests abnormal: 0
Hepatotoxicity [5]
  HepSE_cholelithiasis: 0
Hepatotoxicity [6]
  HepSE_cholecystitis: 0
Hepatotoxicity [7]
  HepSE_hepatitis: 1
Hepatotoxicity [8]
  HepSE_elevated liver function tests: 0
Hepatotoxicity [9]
  HepSE_hepatomegaly: 0
Hepatotoxicity [10]
  HepSE_liver disease: 0
Hepatotoxicity [11]
  HepSE_Combined Scores: 2
Hepatotoxicity [12]
  HepSE_hepatic failure: 0
Hepatotoxicity [13]
  HepSE_cirrhosis: 0
Hepatotoxicity [14]
  HepSE_jaundice: 1

## Cc1ccc(-c2nc3ccc(C)cn3c2CC(=O)N(C)C)cc1 [ZOLPIDEM]
Hepatotoxicity [1]
  HepSE_liver fatty: 0
Hepatotoxicity [2]
  HepSE_bilirubinemia: 1
Hepatotoxicity [3]
  HepSE_hepatic necrosis: 0
Hepatotoxicity [4]
  HepSE_liver function tests abnormal: 0
Hepatotoxicity [5]
  HepSE_cholelithiasis: 0
Hepatotoxicity [6]
  HepSE_cholecystitis: 0
Hepatotoxicity [7]
  HepSE_hepatitis: 0
Hepatotoxicity [8]
  HepSE_elevated liver function tests: 0
Hepatotoxicity [9]
  HepSE_hepatomegaly: 0
Hepatotoxicity [10]
  HepSE_liver disease: 0
Hepatotoxicity [11]
  HepSE_Combined Scores: 1
Hepatotoxicity [12]
  HepSE_hepatic failure: 0
Hepatotoxicity [13]
  HepSE_cirrhosis: 0
Hepatotoxicity [14]
  HepSE_jaundice: 0

## CC(=O)O[C@H]1C[C@@H]2CC[C@@H]3[C@H](CC[C@@]4(C)[C@H]3C[C@H]([N+]3(C)CCCCC3)[C@@H]4OC(C)=O)[C@@]2(C)C[C@@H]1N1CCCCC1 [VECURONIUM]
Hepatotoxicity [1]
  HepSE_liver fatty: 0
Hepatotoxicity [2]
  HepSE_bilirubinemia: 0
Hepatotoxicity [3]
  HepSE_hepatic necrosis: 0
Hepatotoxicity [4]
  HepSE_liver function tests abnormal: 0
Hepatotoxicity [5]
  HepSE_cholelithiasis: 0
Hepatotoxicity [6]
  HepSE_cholecystitis: 0
Hepatotoxicity [7]
  HepSE_hepatitis: 0
Hepatotoxicity [8]
  HepSE_elevated liver function tests: 0
Hepatotoxicity [9]
  HepSE_hepatomegaly: 0
Hepatotoxicity [10]
  HepSE_liver disease: 0
Hepatotoxicity [11]
  HepSE_Combined Scores: 0
Hepatotoxicity [12]
  HepSE_hepatic failure: 0
Hepatotoxicity [13]
  HepSE_cirrhosis: 0
Hepatotoxicity [14]
  HepSE_jaundice: 0

## NCC(=O)CCC(=O)O [AMINOLEVULINIC ACID]
Hepatotoxicity [1]
  HepSE_liver fatty: 0
Hepatotoxicity [2]
  HepSE_bilirubinemia: 0
Hepatotoxicity [3]
  HepSE_hepatic necrosis: 0
Hepatotoxicity [4]
  HepSE_liver function tests abnormal: 0
Hepatotoxicity [5]
  HepSE_cholelithiasis: 0
Hepatotoxicity [6]
  HepSE_cholecystitis: 0
Hepatotoxicity [7]
  HepSE_hepatitis: 0
Hepatotoxicity [8]
  HepSE_elevated liver function tests: 0
Hepatotoxicity [9]
  HepSE_hepatomegaly: 0
Hepatotoxicity [10]
  HepSE_liver disease: 0
Hepatotoxicity [11]
  HepSE_Combined Scores: 0
Hepatotoxicity [12]
  HepSE_hepatic failure: 0
Hepatotoxicity [13]
  HepSE_cirrhosis: 0
Hepatotoxicity [14]
  HepSE_jaundice: 0

## Clc1ccc2c(c1)C(N1CCNCC1)=Nc1ccccc1O2 [AMOXAPINE]
Hepatotoxicity [1]
  HepSE_liver fatty: 0
Hepatotoxicity [2]
  HepSE_bilirubinemia: 0
Hepatotoxicity [3]
  HepSE_hepatic necrosis: 0
Hepatotoxicity [4]
  HepSE_liver function tests abnormal: 0
Hepatotoxicity [5]
  HepSE_cholelithiasis: 0
Hepatotoxicity [6]
  HepSE_cholecystitis: 0
Hepatotoxicity [7]
  HepSE_hepatitis: 1
Hepatotoxicity [8]
  HepSE_elevated liver function tests: 0
Hepatotoxicity [9]
  HepSE_hepatomegaly: 0
Hepatotoxicity [10]
  HepSE_liver disease: 0
Hepatotoxicity [11]
  HepSE_Combined Scores: 2
Hepatotoxicity [12]
  HepSE_hepatic failure: 0
Hepatotoxicity [13]
  HepSE_cirrhosis: 0
Hepatotoxicity [14]
  HepSE_jaundice: 1

## O=C(O[C@H]1C[C@H]2CC[C@@H](C1)[N+]21CCCC1)C(O)(c1ccccc1)c1ccccc1.[Cl-] [TROSPIUM CHLORIDE]
Hepatotoxicity [1]
  HepSE_liver fatty: 0
Hepatotoxicity [2]
  HepSE_bilirubinemia: 0
Hepatotoxicity [3]
  HepSE_hepatic necrosis: 0
Hepatotoxicity [4]
  HepSE_liver function tests abnormal: 0
Hepatotoxicity [5]
  HepSE_cholelithiasis: 0
Hepatotoxicity [6]
  HepSE_cholecystitis: 0
Hepatotoxicity [7]
  HepSE_hepatitis: 0
Hepatotoxicity [8]
  HepSE_elevated liver function tests: 0
Hepatotoxicity [9]
  HepSE_hepatomegaly: 0
Hepatotoxicity [10]
  HepSE_liver disease: 0
Hepatotoxicity [11]
  HepSE_Combined Scores: 0
Hepatotoxicity [12]
  HepSE_hepatic failure: 0
Hepatotoxicity [13]
  HepSE_cirrhosis: 0
Hepatotoxicity [14]
  HepSE_jaundice: 0

## CCN(C(C)=O)c1cccc(-c2ccnc3c(C#N)cnn23)c1 [ZALEPLON]
Hepatotoxicity [1]
  HepSE_liver fatty: 0
Hepatotoxicity [2]
  HepSE_bilirubinemia: 1
Hepatotoxicity [3]
  HepSE_hepatic necrosis: 0
Hepatotoxicity [4]
  HepSE_liver function tests abnormal: 1
Hepatotoxicity [5]
  HepSE_cholelithiasis: 1
Hepatotoxicity [6]
  HepSE_cholecystitis: 0
Hepatotoxicity [7]
  HepSE_hepatitis: 0
Hepatotoxicity [8]
  HepSE_elevated liver function tests: 0
Hepatotoxicity [9]
  HepSE_hepatomegaly: 0
Hepatotoxicity [10]
  HepSE_liver disease: 0
Hepatotoxicity [11]
  HepSE_Combined Scores: 3
Hepatotoxicity [12]
  HepSE_hepatic failure: 0
Hepatotoxicity [13]
  HepSE_cirrhosis: 0
Hepatotoxicity [14]
  HepSE_jaundice: 0

## Cc1nc(Nc2ncc(C(=O)Nc3c(C)cccc3Cl)s2)cc(N2CCN(CCO)CC2)n1.O [DASATINIB]
Hepatotoxicity [1]
  HepSE_liver fatty: 0
Hepatotoxicity [2]
  HepSE_bilirubinemia: 0
Hepatotoxicity [3]
  HepSE_hepatic necrosis: 0
Hepatotoxicity [4]
  HepSE_liver function tests abnormal: 1
Hepatotoxicity [5]
  HepSE_cholelithiasis: 0
Hepatotoxicity [6]
  HepSE_cholecystitis: 1
Hepatotoxicity [7]
  HepSE_hepatitis: 1
Hepatotoxicity [8]
  HepSE_elevated liver function tests: 0
Hepatotoxicity [9]
  HepSE_hepatomegaly: 0
Hepatotoxicity [10]
  HepSE_liver disease: 0
Hepatotoxicity [11]
  HepSE_Combined Scores: 3
Hepatotoxicity [12]
  HepSE_hepatic failure: 0
Hepatotoxicity [13]
  HepSE_cirrhosis: 0
Hepatotoxicity [14]
  HepSE_jaundice: 0
